Laboratory results as given in US20040254252A1, “Compositions containing a combination of a pharmaceutical agent or a cosmetic agent and an oxy group-bearing aromatic aldehyde and their use in treatments” (priority 2003, published 2004).

Legend:
[1] = Franz cell percutaneous absorption analysis; format: in vitro ADME, human; details: from lotion formulation with 1.0% 4-ethoxybenzaldehyde; 24 hour period
Method: This lotion was then tested by Franz cell percutaneous absorption analysis to determine how much 4-EB could penetrate human skin over a 24 hour period. The lotion formulation above provided a flux rate of 4-EB through human skin of 30-50 micrograms/hour.

[2] = tested on: TPA-induced PGE2 expression in keratinocytes; experiment: TPA-induced PGE-2 in human skin keratinocytes, ELISA of culture medium; format: cell-based; parameters: percent inhibition of TPA-induced PGE-2: unit of the concentration uncertain; details: TPA 32 nM
Method: Similar in vitro studies as those described in Example 1 were run using human skin keratinocytes. The experimental set up was the same as described for Example 2, but replacing IL-1 with tetradecanoyl phorbol acetate (TPA) at a concentration of 32 nM as the agonist.
Similar in vitro studies as those described in Example 4 were run using human skin keratinocytes. The experimental set up was the same as described for Example 5 but replacing IL-1 with tetradecanoyl phorbol acetate (TPA) at a concentration of 32 nM as the agonist. The compounds tested were 2-ethoxybenzaldehyde (2-EB), and 3-ethoxybenzaldehyde (3-EB) and 4-ethoxybenzaldehyde (4-EB) in concentrations of either 10, 50, or 100 μM.

IL-1 induction of PGE-2 = IL-1 induction of PGE-2 in human skin fibroblasts, ELISA of culture medium; format: cell-based
Method: For this experiment, human skin fibroblasts were seeded into 12 well culture dishes at a density of 80,000 cells/wells in tissue culture medium and left overnight to attach to the dish. The next day, medium was removed and replaced with fresh medium containing either 1% ethanol as a diluent control, IL-1 at a concentration of 500 picograms/ml, or IL-1 plus 4-EB at either 250 μM or 500 μM. Cells were incubated for an additional 24 hours and at this time, the medium was removed and assayed by ELISA for the presence of PGE-2 in the culture medium. […] The percent inhibitions are as follows: 4-EB, 100%, 6% and 10% at 50 μM, 10 μM and 1 μM.
Subsequent studies were carried out to determine the dose-response of human skin fibroblasts to 4-EB. […] The results of the study are provided graphically in FIG. 3A.
For this experiment, human skin fibroblasts were seeded into 12 well culture dishes at a density of 80,000 cells/wells in tissue culture medium and left overnight to attach to the dish. The next day, medium was removed and replaced with fresh medium containing either 1% ethanol as a diluent control, IL-1 at a concentration of 500 picograms/ml, or IL-1 plus one of the compounds under investigation at a concentration of 1, 10, 50 or 100 μM. Cells were incubated for an additional 24 hours and at this time, the medium was removed and assayed by ELISA for the presence of PGE-2 in the culture medium.

UV-induced erythema = experiment: UVB-induced erythema on inner forearm of a volunteer, topical lotion; format: in vivo, human; details: next day, 14 hours post-irradiation
Method: This lotion was then tested to determine if it could prevent an inflammatory response when applied topically to human skin. For this study a lab volunteer was irradiated on a quarter sized spot on the inner forearm with 60-80 mJ of UVB light (a sunlamp). This dose was sufficient to cause a highly visible red erythema response. Immediately following irradiation on both arms, one arm was treated with the above 4-EB lotion while the other arm was treated with the same lotion formulation but with no 4-EB.

Row | SMILES | flux rate of 4-EB through human skin [1] | percent inhibition of TPA-induced PGE-2 ([2]; 50 μM) | percent inhibition of TPA-induced PGE-2 ([2]; 1001 (unit uncertain)) | inhibition at 50 µM ([2]; Homo sapiens, Keratinocyte, 50 μM, read-out: percent inhibition of TPA-induced PGE-2) | inhibition at 100 µM ([2]; Homo sapiens, Keratinocyte, 100 μM, read-out: percent inhibition of TPA-induced PGE-2) | percent inhibition of IL-1 induced PGE-2 (IL-1 induction of PGE-2; 50 μM, IL-1 500 picograms/ml, 24 hours) | block of the IL-1 induction of PGE-2 (in words) (IL-1 induction of PGE-2; 100 μM, dose-response study) | inhibition of the IL-1 induction of PGE-2 (IL-1 induction of PGE-2; 250 μM, IL-1 500 picograms/ml, 24 hours) | inhibition of the IL-1 induction of PGE-2 (IL-1 induction of PGE-2; 500 μM, IL-1 500 picograms/ml, 24 hours) | redness of the treated spot (UV-induced erythema) | inhibition of the IL-1 induced production of PGE-2 (in words) (IL-1 induction of PGE-2; 50 μM)
1 | CCOc1ccc(C=O)cc1 [4-EB, 4-ethoxybenzaldehyde] | 30-50 micrograms/hour | 79.9% | 94.9% | 79.9% | 94.9% | 82% | completely blocked | complete inhibition | complete inhibition | no redness | 
2 | COc1ccc(C=O)cc1 [4-MB, 4-methoxybenzaldehyde] |  |  |  |  |  |  |  |  |  |  | did not appear to inhibit
